Experimental data reported in patent US20240025884A1 (Dong-A ST Co., Ltd., priority 2022, published 2024).

What follows are compounds tested against GCN2 (Homo sapiens (Human), UniProt Q9P2K8) (assay: GCN2 Biochemical Assay (TR-FRET, GFP-eIF2S1 substrate phosphorylation)). Details: read-out: IC50 (GCN2 Inhibitory Activity).
GCN2, sequence (Q9P2K8 whole entry): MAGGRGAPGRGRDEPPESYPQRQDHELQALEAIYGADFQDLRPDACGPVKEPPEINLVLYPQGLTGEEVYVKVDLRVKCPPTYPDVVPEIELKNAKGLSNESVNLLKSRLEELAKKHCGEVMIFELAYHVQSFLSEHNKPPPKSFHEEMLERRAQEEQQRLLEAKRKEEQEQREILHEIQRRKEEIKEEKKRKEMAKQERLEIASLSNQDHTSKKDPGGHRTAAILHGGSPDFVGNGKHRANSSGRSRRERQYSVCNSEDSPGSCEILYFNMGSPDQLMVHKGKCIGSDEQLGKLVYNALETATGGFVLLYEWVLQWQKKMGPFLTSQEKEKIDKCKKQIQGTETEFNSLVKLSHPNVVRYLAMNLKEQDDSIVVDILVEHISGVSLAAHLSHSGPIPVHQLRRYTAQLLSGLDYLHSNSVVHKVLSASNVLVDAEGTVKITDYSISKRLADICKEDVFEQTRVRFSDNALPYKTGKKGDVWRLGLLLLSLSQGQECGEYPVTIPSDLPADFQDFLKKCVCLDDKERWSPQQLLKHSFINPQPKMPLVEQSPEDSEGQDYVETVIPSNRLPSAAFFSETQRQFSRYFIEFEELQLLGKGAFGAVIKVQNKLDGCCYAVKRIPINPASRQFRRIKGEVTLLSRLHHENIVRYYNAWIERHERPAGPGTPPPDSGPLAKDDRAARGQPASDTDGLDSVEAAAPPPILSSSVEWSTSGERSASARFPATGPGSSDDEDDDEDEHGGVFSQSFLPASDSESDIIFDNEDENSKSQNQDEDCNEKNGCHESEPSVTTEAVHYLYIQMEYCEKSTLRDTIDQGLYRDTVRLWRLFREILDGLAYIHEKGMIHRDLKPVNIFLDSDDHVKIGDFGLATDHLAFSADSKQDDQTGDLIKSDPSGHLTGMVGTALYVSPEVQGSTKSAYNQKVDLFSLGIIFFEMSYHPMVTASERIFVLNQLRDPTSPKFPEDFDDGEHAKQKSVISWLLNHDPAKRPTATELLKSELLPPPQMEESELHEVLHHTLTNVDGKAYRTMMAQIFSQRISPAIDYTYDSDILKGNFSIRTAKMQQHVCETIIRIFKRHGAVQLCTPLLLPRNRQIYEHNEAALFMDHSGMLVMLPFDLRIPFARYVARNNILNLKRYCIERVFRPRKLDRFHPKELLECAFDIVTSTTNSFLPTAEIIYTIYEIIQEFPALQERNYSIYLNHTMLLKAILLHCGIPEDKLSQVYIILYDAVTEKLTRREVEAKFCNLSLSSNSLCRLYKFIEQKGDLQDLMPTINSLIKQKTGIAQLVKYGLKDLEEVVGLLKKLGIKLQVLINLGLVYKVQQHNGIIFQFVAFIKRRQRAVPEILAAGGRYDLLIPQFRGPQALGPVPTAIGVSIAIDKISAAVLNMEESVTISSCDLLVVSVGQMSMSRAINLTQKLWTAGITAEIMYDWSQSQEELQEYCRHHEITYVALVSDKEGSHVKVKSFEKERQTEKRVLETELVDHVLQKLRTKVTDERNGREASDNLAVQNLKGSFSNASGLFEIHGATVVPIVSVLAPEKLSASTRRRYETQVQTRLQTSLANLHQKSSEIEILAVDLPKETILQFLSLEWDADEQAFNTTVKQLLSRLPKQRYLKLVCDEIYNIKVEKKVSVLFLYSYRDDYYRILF
Description: Experimental Example 1: GCN2 Biochemical Assay
An inhibitory effect of the inventive compound on GCN2 was identified as follows.
384-well (Greiner #784075) (or 1536-well [Greiner #782075]) plates containing 60 nl (or 20 nl for 1536-well) of compound in 100% DMSO (10 concentrations serially diluted 3.16-fold) were prepared. Two copies of plates were used—one for the GCN2 assay and a second for an artifact plate. Working reagents were prepared as follows—reaction buffer: Tris pH 7.5 20 mM, MgCl2 5 mM, DTT 1 mM, Brij-35 0.005%, EGTA 0.5 mM in water; 2× enzyme solution: GCN2 (produced in-house) 1.6 nM in reaction buffer; 2× substrate solution: GFP-eIFS1 (Thermo Fisher Scientific, PV4809) 50 nM, ATP 0.2 mM, tRNA 0.4 mg/ml in reaction buffer; p-GFP-eIF2S1 (artifact) solution: p-GFP-eIFS1 (produced by incubation of 100 nM GFP-eIF2S1 in reaction buffer with 100 uM ATP and 1 nM PERK KD enzyme for 3 hr at room temperature) 2 nM in reaction buffer; 3× stop/antibody solution: p-GFP-EIF2S1 Th-Ab (Thermo Fisher Scientific, PV4816) 6 nM, AZ13933939 3 uM, BSA 3% in reaction buffer. Reagents were loaded onto a liquid dispenser (Certus FLEX, Trajan Scientific and Medical), and 3 ul (1 ul for 1536-well) of 2× enzyme solution, followed by 3 ul (1 ul for 1536-well) of 2× substrate solution was added to the plates. When small numbers of plates were processed, the enzyme solution was added first to all plates, then the valve used for the substrate solution was primed immediately prior to use. Plates were tapped or spun 1 min/1K/RT to ensure proper mixing, followed by incubation at room temperature for 70 mins, covered/stacked in the dark. For the artifact plate, 6 ul of p-GFP-eIF2S1 solution was added prior to adding the stop/antibody solution. 3 ul (1 ul for 1536-well) of 3× stop/antibody solution was added to the plates, followed by a spin-down for 1 min/1K/RT, and incubation for 2-3 hr, sealed or covered with lids in the dark at room temperature. Plates were read on a plate reader (PHERAstar FSX, BMF Labtech) at Ex 340/Em 490/Em 520 nm.
For `CCc1cnc(Nc2cc(C)n(C)n2)nc1-c1c[nH]c2c(NC(=O)CN3CC[C@H](Oc4ccnc(NC5CC5)n4)C3)cccc12` (stereo in doubt) [Example 11, (3-((2-(cyclopropylamino)pyrimidin-4-yl)oxy)pyrrolidin-1-yl)-N-(3-(2-((1,5-dimethyl-1H-pyrazol-3-yl)amino)-5-ethylpyrimidin-4-yl)-1H-indol-7-yl)acetamide], the IC50 was under 10 nM. `Cc1cnc(Nc2cc(C)n(C)n2)nc1-c1c[nH]c2c(NC(=O)CN3CCC(Oc4cc(C(F)(F)F)n(C)n4)C3)cccc12` (stereo in doubt) [Example 117, (R)-N-(3-(2-((1,5-dimethyl-1H-pyrazol-3-yl)amino)-5-methylpyrimidin-4-yl)-1H-indol-7-yl)-2-(3-((1-methyl-5-(trifluoromethyl)-1H-pyrazol-3-yl)oxy)pyrrolidin-1-yl)acetamide] showed an IC50 of 10 to 100 nM. Compound `Cc1cnc(Nc2cc(C)n(C)n2)nc1-c1c[nH]c2c(NC(=O)CN3CC[C@H](Oc4cnc(-c5ccccc5)nc4)C3)cccc12` (stereo in doubt) [Example 257, N-(3-(2-((1,5-dimethyl-1H-pyrazol-3-yl)amino)-5-methylpyrimidin-4-yl)-1H-indol-7-yl)-2-(3-((2-phenylpyrimidin-5-yl)oxy)pyrrolidin-1-yl)acetamide] has an IC50 of 100 to 1000 nM. In the case of `Cc1cnc(Nc2cc(C)n(C)n2)nc1-c1c[nH]c2c(NC(=O)CN3CC[C@H](Oc4ccnc(NC5CC5)n4)C3)c(F)ccc12` [Example 1, (S)-2-(3-((2-(cyclopropylamino)pyrimidin-4-yl)oxy)pyrrolidin-1-yl)-N-(3-(2-((1,5-dimethyl-1H-pyrazol-3-yl)amino)-5-methylpyrimidin-4-yl)-6-fluoro-1H-indol-7-yl)acetamide], the IC50 is reported as under 10 nM. With `Cc1cnc(Nc2cc(C)n(C)n2)nc1-c1c[nH]c2c(NC(=O)CN3CC[C@H](Oc4ccnc(NC5CC5)n4)C3)cc(N)cc12` [Example 2, (S)-N-(5-amino-3-(2-((1,5-dimethyl-1H-pyrazol-3-yl)amino)-5-methylpyrimidin-4-yl)-1H-indol-7-yl)-2-(3-((2-(cyclopropylamino)pyrimidin-4-yl)oxy)pyrrolidin-1-yl)acetamide] the IC50 was 10 to 100 nM. `Cc1cnc(Nc2cc(C)n(C)n2)nc1-c1c[nH]c2c(NC(=O)CN3CC[C@H](Oc4ccnc(NC5CC5)n4)C3)c(N(C)C)ccc12` [Example 3, (S)-2-(3-((2-(cyclopropylamino)pyrimidin-4-yl)oxy)pyrrolidin-1-yl)-N-(3-(2-((1,5-dimethyl-1H-pyrazol-3-yl)amino)-5-methylpyrimidin-4-yl)-6-(dimethylamino)-1H-indol-7-yl)acetamide] showed an IC50 of under 10 nM. `COc1ccc2c(-c3nc(Nc4cc(C)n(C)n4)ncc3C)c[nH]c2c1NC(=O)CN1CC[C@H](Oc2ccnc(NC3CC3)n2)C1` [Example 4, (S)-2-(3-((2-(cyclopropylamino)pyrimidin-4-yl)oxy)pyrrolidin-1-yl)-N-(3-(2-((1,5-dimethyl-1H-pyrazol-3-yl)amino)-5-methylpyrimidin-4-yl)-6-methoxy-1H-indol-7-yl)acetamide] gave an IC50 of under 10 nM. For `Cc1cnc(Nc2cc(C)n(C)n2)nc1C1=CCc2c1ccc(N(C)C)c2NC(=O)CN1CC[C@H](Oc2ccnc(NCC(F)(F)F)n2)C1` [Example 5, (S)-N-(3-(2-((1,5-dimethyl-1H-pyrazol-3-yl)amino)-5-methylpyrimidin-4-yl)-6-(dimethylamino)-1H-inden-7-yl)-2-(3-((2-((2,2,2-trifluoroethyl)amino)pyrimidin-4-yl)oxy)pyrrolidin-1-yl)acetamide], the IC50 was under 10 nM. In the case of `COc1ccc2c(-c3nc(Nc4cc(C)n(C)n4)ncc3C)c[nH]c2c1NC(=O)CN1CC[C@H](Oc2ccnc(NCC(F)(F)F)n2)C1` [Example 6, (S)-N-(3-(2-((1,5-dimethyl-1H-pyrazol-3-yl)amino)-5-methylpyrimidin-4-yl)-6-methoxy-1H-indol-7-yl)-2-(3-((2-((2,2,2-trifluoroethyl)amino)pyrimidin-4-yl)oxy)pyrrolidin-1-yl)acetamide], the IC50 is reported as 10 to 100 nM. `Cc1cc(Nc2nccc(-c3c[nH]c4c(NC(=O)CN5CC[C@H](Oc6cc(NC7CC7)ncn6)C5)cccc34)n2)nn1C` [Example 7, (S)-2-(3-((6-(cyclopropylamino)pyrimidin-4-yl)oxy)pyrrolidin-1-yl)-N-(3-(2-((1,5-dimethyl-1H-pyrazol-3-yl)amino)pyrimidin-4-yl)-1H-indol-7-yl)acetamide] was tested, and the IC50 was under 10 nM. Work on `Cc1cc(Nc2ncc(F)c(-c3c[nH]c4c(NC(=O)CN5CC[C@H](Oc6ccncc6)C5)cccc34)n2)nn1C` [Example 8, (S)-N-(3-(2-((1,5-dimethyl-1H-pyrazol-3-yl)amino)-5-fluoropyrimidin-4-yl)-1H-indol-7-yl)-2-(3-(pyridin-4-yloxy)pyrrolidin-1-yl)acetamide] yielded an IC50 of under 10 nM. With `Cc1cc(Nc2ncc(Cl)c(-c3c[nH]c4c(NC(=O)CN5CC[C@H](Oc6ccncc6)C5)cccc34)n2)nn1C` [Example 9, (S)-N-(3-(5-chloro-2-((1,5-dimethyl-1H-pyrazol-3-yl)amino)pyrimidin-4-yl)-1H-indol-7-yl)-2-(3-(pyridin-4-yloxy)pyrrolidin-1-yl)acetamide] the IC50 was under 10 nM. `Cc1cc(Nc2ncc(C3CC3)c(-c3c[nH]c4c(NC(=O)CN5CC[C@H](Oc6ccnc(NC7CC7)n6)C5)cccc34)n2)nn1C` [Example 12, (S)-N-(3-(5-cyclopropyl-2-((1,5-dimethyl-1H-pyrazol-3-yl)amino)pyrimidin-4-yl)-1H-indol-7-yl)-2-(3-((2-(cyclopropylamino)pyrimidin-4-yl)oxy)pyrrolidin-1-yl)acetamide] showed an IC50 of 10 to 100 nM. With `COc1cnc(Nc2cc(C)n(C)n2)nc1-c1c[nH]c2c(NC(=O)CN3CC[C@H](Oc4ccnc(NC5CC5)n4)C3)cccc12` [Example 13, (S)-2-(3-((2-(cyclopropylamino)pyrimidin-4-yl)oxy)pyrrolidin-1-yl)-N-(3-(2-((1,5-dimethyl-1H-pyrazol-3-yl)amino)-5-methoxypyrimidin-4-yl)-1H-indol-7-yl)acetamide] the IC50 was under 10 nM. With `COc1cnc(Nc2cc(C)n(C)n2)nc1-c1c[nH]c2c(NC(=O)CN3CC[C@H](Oc4cnnc(NC5CC5)n4)C3)cccc12` [Example 14, (S)-2-(3-((3-(cyclopropylamino)-1,2,4-triazin-5-yl)oxy)pyrrolidin-1-yl)-N-(3-(2-((1,5-dimethyl-1H-pyrazol-3-yl)amino)-5-methoxypyrimidin-4-yl)-1H-indol-7-yl)acetamide] the IC50 was under 10 nM. For `Cc1cnc(Nc2cc3n(n2)CCC3)nc1-c1c[nH]c2c(NC(=O)CN3CC[C@H](Oc4ccncn4)C3)cccc12` [Example 15, (S)-N-(3-(2-((5,6-dihydro-4H-pyrrolo[1,2-b]pyrazol-2-yl)amino)-5-methylpyrimidin-4-yl)-1H-indol-7-yl)-2-(3-(pyrimidin-4-yloxy)pyrrolidin-1-yl)acetamide], the IC50 was under 10 nM. Work on `Cc1cnc(Nc2cc3n(n2)CCC3)nc1-c1c[nH]c2c(NC(=O)CN3CC[C@H](Oc4ccnc(NC5CC5)n4)C3)cccc12` [Example 16, (S)-2-(3-((2-(cyclopropylamino)pyrimidin-4-yl)oxy)pyrrolidin-1-yl)-N-(3-(2-((5,6-dihydro-4H-pyrrolo[1,2-b]pyrazol-2-yl)amino)-5-methylpyrimidin-4-yl)-1H-indol-7-yl)acetamide] yielded an IC50 of under 10 nM. `Cc1cnc(Nc2cc(C)n(CCN3CCOCC3)n2)nc1-c1c[nH]c2c(NC(=O)CN3CC[C@H](Oc4ccnc(NC5CC5)n4)C3)cccc12` [Example 17, (S)-2-(3-((2-(cyclopropylamino)pyrimidin-4-yl)oxy)pyrrolidin-1-yl)-N-(3-(5-methyl-2-((5-methyl-1-(2-morpholinoethyl)-1H-pyrazol-3-yl)amino)pyrimidin-4-yl)-1H-indol-7-yl)acetamide] was tested, and the IC50 was under 10 nM. `Cc1cnc(Nc2cc(C)n(C)n2)nc1-c1c[nH]c2c(NC(=O)C(=O)N3CC[C@H](Oc4ccncc4)C3)cccc12` [Example 18, (S)-N-(3-(2-((1,5-dimethyl-1H-pyrazol-3-yl)amino)-5-methylpyrimidin-4-yl)-1H-indol-7-yl)-2-ox0-2-(3-(pyridin-4-yloxy)pyrrolidin-1-yl)acetamide] showed an IC50 of 10 to 100 nM. Work on `Cc1cnc(Nc2cc(C)n(C)n2)nc1-c1c[nH]c2c(NC(=O)C(=O)N3CCC(Oc4ccccn4)C3)cccc12` (stereo not drawn) [Example 19] yielded an IC50 of 10 to 100 nM. In the case of `Cc1cnc(Nc2cc(C)n(C)n2)nc1-c1c[nH]c2c(NC(=O)C(=O)N3CC[C@H](Oc4ccnc(NC5CC5)n4)C3)cccc12` [Example 20, (S)-2-(3-((2-(cyclopropylamino)pyrimidin-4-yl)oxy)pyrrolidin-1-yl)-N-(3-(2-((1,5-dimethyl-1H-pyrazol-3-yl)amino)-5-methylpyrimidin-4-yl)-1H-indol-7-yl)-2-oxoacetamide], the IC50 is reported as under 10 nM.
